Where two headings read alike, the source gives them in different places.

As a reminder, the IC50 is the concentration that gives 50% inhibition.

For series [1], the target named is T1, CYP2B6 (Homo sapiens, UniProt P20813).
T1 construct: native enzyme in pooled human liver microsomes (200 donors, male and female; Sekisui XenoTech), isoform-selective P450-Glo CYP2B6 kit
T1 sequence (P20813 1-491): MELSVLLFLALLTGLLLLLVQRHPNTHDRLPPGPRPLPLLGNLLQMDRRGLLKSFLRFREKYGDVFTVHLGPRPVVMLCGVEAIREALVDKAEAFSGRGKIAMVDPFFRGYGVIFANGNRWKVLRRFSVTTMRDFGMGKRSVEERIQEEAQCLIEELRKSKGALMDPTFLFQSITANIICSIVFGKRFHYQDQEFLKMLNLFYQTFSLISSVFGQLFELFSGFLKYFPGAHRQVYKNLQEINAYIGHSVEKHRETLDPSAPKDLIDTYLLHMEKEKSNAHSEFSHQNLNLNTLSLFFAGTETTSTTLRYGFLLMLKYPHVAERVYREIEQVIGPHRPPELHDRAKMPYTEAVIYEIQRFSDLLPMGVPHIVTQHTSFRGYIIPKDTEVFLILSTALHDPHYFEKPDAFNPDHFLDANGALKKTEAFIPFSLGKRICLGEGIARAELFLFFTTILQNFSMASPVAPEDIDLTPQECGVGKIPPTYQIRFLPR
Nature of the series: P450-Glo luminescence inhibition assay. Type of series: biochemical.

Series [2] addresses T2, CYP3A4 (Homo sapiens, UniProt P08684).
T2 construct: native enzyme in pooled human liver microsomes (200 donors, male and female; Sekisui XenoTech), isoform-selective P450-Glo CYP3A4 kit
Nature of the series: P450-Glo luminescence inhibition assay. Type of series: biochemical.

T2 sequence (P08684 2-503): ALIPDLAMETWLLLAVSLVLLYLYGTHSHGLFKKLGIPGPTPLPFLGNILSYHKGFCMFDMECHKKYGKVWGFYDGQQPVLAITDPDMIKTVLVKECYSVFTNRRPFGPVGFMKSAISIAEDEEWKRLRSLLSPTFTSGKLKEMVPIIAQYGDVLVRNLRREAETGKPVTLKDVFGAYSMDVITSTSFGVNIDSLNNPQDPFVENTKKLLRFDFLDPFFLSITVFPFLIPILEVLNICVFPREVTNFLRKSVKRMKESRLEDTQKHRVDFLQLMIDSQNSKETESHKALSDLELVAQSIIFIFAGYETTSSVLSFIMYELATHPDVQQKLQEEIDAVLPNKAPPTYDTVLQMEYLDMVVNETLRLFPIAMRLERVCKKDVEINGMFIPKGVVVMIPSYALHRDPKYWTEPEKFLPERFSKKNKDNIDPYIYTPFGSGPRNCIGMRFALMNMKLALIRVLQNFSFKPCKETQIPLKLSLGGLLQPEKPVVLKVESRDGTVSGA

In the case of `C=C1C(=O)O[C@@]23[C@H]1CC[C@@H](C)[C@@H]2CC[C@@]1(C)O[C@@H]31` [Arteannuin B], the IC50 in series [1] turned out to be 9.36 µM; in series [2] (read-out: CYP3A4 IC50), 12.3 µM.
In the case of `C=C(C(=O)O)[C@@H]1CC[C@@H](C)[C@@H]2CCC(C)=C[C@@H]21` [Artemisinic Acid], the IC50 was 123 µM in series [1] and 240 µM in series [2] (read-out: CYP3A4 IC50).
For the compound `CC1(C)[C@@H]2CC[C@@]1(C)C(=O)C2` [Camphor (+)], the figures for the IC50 in series [1] and in series [2] (read-out: CYP3A4 IC50) were 119 µM and over 600 µM, respectively.
For `CC1(C)[C@H]2CC[C@]1(C)C(=O)C2` [Camphor (-)], the half-inhibitory concentration (IC50) in series [1] was 142 µM; in series [2] (read-out: CYP3A4 IC50) it was over 600 µM.
On to `O=C(/C=C/c1ccc(O)c(O)c1)O[C@@H]1C[C@](O)(C(=O)O)C[C@@H](O)[C@H]1O` [Chlorogenic Acid], for which the IC50 in series [1] and in series [2] (read-out: CYP2B6 IC50) was over 600 µM each time.
Consider `COc1cc(-c2oc3cc(OC)c(OC)c(O)c3c(=O)c2OC)ccc1O` [Chrysosplenetin], for which the results for the 50% inhibitory concentration (IC50) in series [1] and in series [2] (read-out: CYP3A4 IC50) were 74.7 µM and 21.7 µM, respectively.
As for `COc1cc2oc(-c3ccc(O)c(O)c3)c(OC)c(=O)c2c(O)c1OC` [Chrysosplenol-D], the IC50 stood at 52.1 µM in series [1] and 23 µM in series [2] (read-out: CYP3A4 IC50).
`C[C@@H]1CC[C@H]2[C@@H](C)C(=O)O[C@@H]3O[C@@]4(C)CC[C@@H]1[C@]32O4` [Deoxyartemisinin]: the IC50 in series [1] is 111 µM; in series [2] (read-out: CYP3A4 IC50), over 600 µM.
Regarding `O=c1c(O)c(-c2ccc(O)cc2)oc2cc(O)cc(O)c12` [Kaempferol], the concentration for half-maximal inhibition (IC50) is over 600 µM in series [1] and 33.8 µM in series [2] (read-out: CYP3A4 IC50).
The matching figures for `O=c1c(O)c(-c2ccc(O)c(O)c2)oc2cc(O)cc(O)c12` [Quercetin]: 19.9 µM and 4.59 µM.
In turn, `COc1cc2ccc(=O)oc2cc1O` [Scopoletin] returned a 50% inhibitory concentration (IC50) in series [1] of over 600 µM.
